Test results published in patent publication US4879311A, “Derivatives of benzoyloxyacetic acid, and preparation and formulations thereof for therapeutic use” (Inverni della Beffa S.p.A., priority 1987, dated 1989).
Where a name gives a salt, the structure may show the parent alone.

Test: pH of aqueous solution
Type: physicochemical
Conditions: 1% aqueous solution

In the case of `Cc1ccc(Cl)c(Nc2ccccc2C(=O)OCC(=O)O)c1Cl` [Ic, d,l-lysine salt (Ic) of 2-[(2,6-dichloro-3-methylphenyl)-amino]benzoyloxyacetic acid], the “pH in 1% aqueous solution” value is reported as 6.75.
